One assay deals with MOLM-13 cells. Description: Cell growth inhibition, AML cell line MOLM-13 (CyQuant, day 7). The format is cell-based. The conditions noted are these: Homo sapiens. The text has this: (§1) Among other things, provided technologies are useful for treating various diseases, disorders, or conditions. For example, in some embodiments, provided technologies are useful for treating cancer as confirmed in the present Example. […] In some embodiments, provided technologies can inhibit cell proliferation. In some embodiments, the present disclosure provides technologies for assessing various technologies, e.g., compounds, compositions, or methods. Among other things, the present Example provides technologies, e.g., cell growth inhibition assay, for assessing various technologies. […] In some embodiments, the following cell growth inhibition methods are utilized to assess provided technologies.
AML: AML cell line MOLM-13 cells were cultured in RPMI+15% FBS and were plated at 500 cells/well in 100 uL media in a U-bottom 96-well plate. Compounds were dilute to 3×final in full media and 50 uL were added to corresponding wells. Compound and media were replenished on days 2 and 5. On day 7, cells were transferred to a 96-well black bottom plate and CyQuant was performed per manufacturer's instructions.
(§2) In some assessments, for cell growth inhibition, cells, e.g., MOLM13, NCI-H1048, and LASCPC-01 cells, were counted using a hemocytometer or automated cell counting in triplicates. In some assessments, proliferation in NEPC organoids as measured with Cell Titer Glo reagent (Promega). Growth inhibition was determined relative to vehicle control.

The test system of the next assay is NCI-H1048 cells. Description: Cell growth inhibition, SCLC cell line NCI-H1048 (cell count, day 11). The format is cell-based, human. The conditions noted are these: Homo sapiens.
Text: as §1
SCLC: SCLC cell lines NCI-H1048 and NCI-H1876 were cultured in DMEM F12 media with 5% FBS, 1% Penicillin/Streptomycin and HITES supplement (Hydrocortisone, Insulin, Transferrin, Estradiol and Sodium Selenite). NCI-H1048 cells were plated at 10,000 cells/well of a 24-well plate and NCI-H1876 cells were plated at 20,000 cells/well of a 96-well plate. Compound and media were replenished every two days out to day 11 and 10 respectively. Cells were then trypsinized and counted using either hemocytometer or an automated Countess cell counter.
as §2

The target in assay [1] is T1, KAT2A (Homo sapiens, UniProt Q92830). Description: KAT2A degradation, Western Blot (Jess), MOLM-13 cells. The format is cell-based. More on the design: degrader, Western blot. A digest of the protocol:
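MOLM-13 cells in RPMI 1640/20% FBS were treated with compound for 24 h at 37 °C. RIPA lysates (4 μg) were run on a capillary Western (Jess) with anti-KAT2A antibody and chemiluminescent detection. DC50 comes from percent protein reduction versus DMSO control.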
For orientation: A western blot detects proteins with antibodies after separation by electrophoresis.

The target of assay [2] is T1, KAT2A. The assay is described as follows: KAT2A degradation, Western Blot (Jess), NCI-H1048 cells. The format is cell-based. More on the design: degrader, Western blot (Jess). Put shortly:
(§3)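 NCI-H1048 cells grown in HITES medium with 5% FBS were treated with compounds for 24 h at 37° C. Lysates were run by capillary Western (Jess) with KAT2A or KAT2B antibodies and chemiluminescent detection. DC50 derived from percent protein reduction versus DMSO control.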

For assay [3], the target named is T2, KAT2B (Homo sapiens, UniProt Q92831). The assay is described as follows: KAT2B degradation, Western Blot (Jess), NCI-H1048 cells. The format is cell-based. More on the design: degrader, Western blot (Jess). Put shortly:
as §3

Assay [4] has as its target T2, KAT2B. Description: KAT2B degradation, Western Blot, MOLM-13 cells. The format is cell-based. More on the design: degrader, Western blot. The conditions noted are these: MOLM-13, KAT2B. The procedure:
MOLM-13 cells were maintained at 37° C. in 5% CO2 and 90% humidity in RPMI 1640 supplemented with 20% fetal bovine serum (FBS) and 1× penicillin/streptomycin. Cells were plated in full media at 1-2 million cells/2 mL in a 6-well tissue culture treated plate with or without compounds for 24 h at 37° C. in 5% CO2.
MOLM-13 cells or NCI-H1048 cells were washed with PBS, then lysed with RIPA buffer containing 1×protease and phosphatase inhibitors (SantaCruz Biotechnologies Cat #sc-24948A). Protein was isolated by centrifugation at 12,000×g for 10 minutes at 4° C. and supernatant was collected. Protein was quantified via Bradford assay. Samples were diluted to 4 μg lysate in 16 μL RIPA buffer and then 4 μL of Jess Sample Buffer. Samples were heated at 95° C. for 5 minutes. Samples were loaded onto 12-230 kDa Jess™ Separation Module, 8×25 capillary cartridges (SM-W004, Biotechne). Antibodies loaded were: Primary antibody for KAT2A (GCN5L2 (C26A10) Rabbit mAb (3305, CST)) and for KAT2B (PCAF (C14G9)) Rabbit mAb (3378, CST) at 1:1000 and Anti-Rabbit Detection Module for Jess™ (Cat No #DM-001, Biotechne). Signal was detected by chemiluminescence.
DC50 values were determined from percent reduction of protein as compared to the DMSO control.

Where [5] appears, read: 168 h, MOLM-13, day 7, CyQuant, read-out: MOLM13 GI50.
The mark [6] stands for this setting: 264 h, NCI-H1048, day 11, cell count, read-out: H1048 GI50.
[7] abbreviates: MOLM-13 cells, KAT2A, 24 h, Western Blot, vs DMSO, read-out: KAT2A MOLM-13 DC50.
Where [8] appears, read: NCI-H1048 cells, KAT2A, 24 h, Western Blot, vs DMSO, read-out: KAT2A NCI-H1048 DC50.
[9] abbreviates: NCI-H1048 cells, KAT2B, 24 h, Western Blot, vs DMSO, read-out: KAT2B NCI-H1048 DC50.

As a reminder, the GI50 is the concentration at which growth is held to half of that of the control. For orientation: DC50 means the concentration giving 50% degradation.

Where two headings read alike, the source gives them in different places.

T2 sequence (Q92831 whole entry): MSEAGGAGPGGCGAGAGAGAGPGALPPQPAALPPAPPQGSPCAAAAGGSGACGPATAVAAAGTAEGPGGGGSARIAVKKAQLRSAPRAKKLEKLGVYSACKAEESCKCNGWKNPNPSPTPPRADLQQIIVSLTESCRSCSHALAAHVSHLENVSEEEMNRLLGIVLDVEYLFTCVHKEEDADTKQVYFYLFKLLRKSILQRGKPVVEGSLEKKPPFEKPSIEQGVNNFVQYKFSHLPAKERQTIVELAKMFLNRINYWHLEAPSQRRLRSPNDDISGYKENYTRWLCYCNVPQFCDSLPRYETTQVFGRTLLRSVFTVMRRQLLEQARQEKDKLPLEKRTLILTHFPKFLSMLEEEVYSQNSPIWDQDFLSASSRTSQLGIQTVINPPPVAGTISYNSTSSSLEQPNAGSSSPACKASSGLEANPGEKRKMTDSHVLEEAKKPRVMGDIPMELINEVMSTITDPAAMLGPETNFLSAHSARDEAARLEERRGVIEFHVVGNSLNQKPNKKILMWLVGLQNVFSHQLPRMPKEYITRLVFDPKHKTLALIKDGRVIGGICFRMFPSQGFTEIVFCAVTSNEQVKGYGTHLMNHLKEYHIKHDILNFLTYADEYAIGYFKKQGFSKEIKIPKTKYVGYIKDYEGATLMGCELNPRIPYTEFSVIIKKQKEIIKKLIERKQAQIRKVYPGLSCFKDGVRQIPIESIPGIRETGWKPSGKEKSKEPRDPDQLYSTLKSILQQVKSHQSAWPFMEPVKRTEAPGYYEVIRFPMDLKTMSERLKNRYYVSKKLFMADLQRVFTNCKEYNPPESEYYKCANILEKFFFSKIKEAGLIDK
T1 sequence (Q92830 whole entry): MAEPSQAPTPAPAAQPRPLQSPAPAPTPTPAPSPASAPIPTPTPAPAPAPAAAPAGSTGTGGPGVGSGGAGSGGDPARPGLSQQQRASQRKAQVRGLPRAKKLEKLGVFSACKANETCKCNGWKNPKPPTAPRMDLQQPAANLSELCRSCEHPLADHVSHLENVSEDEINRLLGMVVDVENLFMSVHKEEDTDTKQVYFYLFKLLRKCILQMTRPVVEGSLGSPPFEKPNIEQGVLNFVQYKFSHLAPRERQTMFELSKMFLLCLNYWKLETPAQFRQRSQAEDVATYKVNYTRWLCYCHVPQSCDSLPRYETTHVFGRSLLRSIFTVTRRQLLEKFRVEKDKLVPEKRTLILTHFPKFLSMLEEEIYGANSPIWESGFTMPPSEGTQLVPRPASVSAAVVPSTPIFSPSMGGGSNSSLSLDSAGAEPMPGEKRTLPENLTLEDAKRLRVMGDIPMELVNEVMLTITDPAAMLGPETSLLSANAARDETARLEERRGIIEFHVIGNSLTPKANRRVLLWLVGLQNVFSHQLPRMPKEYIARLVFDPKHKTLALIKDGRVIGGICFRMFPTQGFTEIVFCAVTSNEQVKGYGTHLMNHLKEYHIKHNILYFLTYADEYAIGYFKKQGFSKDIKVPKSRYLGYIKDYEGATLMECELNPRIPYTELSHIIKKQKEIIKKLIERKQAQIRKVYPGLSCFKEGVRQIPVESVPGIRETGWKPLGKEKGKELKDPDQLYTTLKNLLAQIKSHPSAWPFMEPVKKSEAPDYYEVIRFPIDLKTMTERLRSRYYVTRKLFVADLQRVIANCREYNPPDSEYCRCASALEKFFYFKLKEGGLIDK

Take `CN1C[C@H](Nc2cnn(C)c(=O)c2Br)C[C@H](c2ccc(CN3CCC(Oc4ccc(C5CCC(=O)NC5=O)cc4)CC3)cc2)C1` (some centres unmarked) [Compound 86]: the GI50 was found to be 1.7 nM in the assay on MOLM-13 cells (setting [5]) and 11 nM in the assay with NCI-H1048 cells (setting [6]). Moreover, the figures for the DC50 on KAT2A [1] (setting [7]), on KAT2A [2] (setting [8]) and at KAT2B [3] (setting [9]) were less than 1 nM, less than 1 nM and 1 to 30 nM, respectively.
As to `COc1cc(C2CCC(=O)NC2=O)ccc1N1CCC2(CCN(C(=O)c3ccc([C@H]4C[C@@H](Nc5cnn(C)c(=O)c5Br)CN(C)C4)cc3)CC2)CC1` (some centres unmarked) [Compound 238], the concentration for 50% growth inhibition (GI50) is 20 nM in the assay with MOLM-13 cells (setting [5]) and 60 nM in the assay on NCI-H1048 cells (setting [6]). Also, the DC50 on KAT2A [2] (setting [8]) is less than 1 nM; at KAT2B [3] (setting [9]) it was 1 to 30 nM.
For the molecule `CN1C[C@H](Nc2cnn(C)c(=O)c2Br)C[C@H](c2ccc(C(=O)N(C)CCCN(C)c3ccc(CCCOc4cccc5c4C(=O)N(C4CCC(=O)NC4=O)C5=O)cc3)cc2)C1` (some centres unmarked) [Compound Ref-1, reference compound], the 50% growth inhibitory concentration (GI50) with MOLM-13 cells (MOLM-13, comparison table with Ref-1, read-out: Growth GI50) came out at 60 nM; in the assay on NCI-H1048 cells (NCI-H1048, comparison table with Ref-1, read-out: Growth GI50), 32 nM. Also, the EC90 was found to be 51 nM on KAT2A [1] (24 h, MOLM-13, KAT2A, read-out: DC90 (the source's name)); 1.8 nM at KAT2B [4] (24 h, read-out: DC90 (the source's name)); 16 nM at KAT2A [2] (24 h, NCI-H1048, KAT2A, read-out: DC90 (the source's name)); 1 nM on KAT2B [3] (24 h, NCI-H1048, KAT2B, read-out: DC90 (the source's name)). The DC50 is 2.2 nM on KAT2A [1] (MOLM-13, KAT2A, read-out: DC50); 0.075 nM at KAT2B [4]; 1.5 nM on KAT2A [2] (NCI-H1048, KAT2A, read-out: DC50); 0.1 nM at KAT2B [3] (NCI-H1048, KAT2B, read-out: DC50).
Turning to `CN1C[C@H](Nc2cnn(C)c(=O)c2Br)C[C@H](c2ccc(C(=O)N3CCC4(CC3)CCN(c3ccc(C5CCC(=O)NC5=O)cc3)CC4)cc2)C1` (stereo partly drawn) [Compound 90, 3-[4-[3-[4-[(3R,5R)-5-[(5-bromo-1-methyl-6-oxo-pyridazin-4-yl)amino]-1-methyl-3-piperidyl]benzoyl]-3,9-diazaspiro[5.5]undecan-9-yl]phenyl]piperidine-2,6-dione], the GI50 in the assay with MOLM-13 cells (setting [5]) is 0.9 nM; with NCI-H1048 cells (setting [6]), 1.5 nM. Besides, the 50% degradation concentration (DC50) at KAT2A [1] (setting [7]), on KAT2A [2] (setting [8]) and at KAT2B [3] (setting [9]) was less than 1 nM each time.
In the case of `CN1C[C@H](Nc2cnn(C)c(=O)c2Br)C[C@H](c2ccc(C(=O)N3CCN(Cc4ccc(C(=O)Nc5ccc6c(c5)CN(C5CCC(=O)NC5=O)C6=O)cc4)CC3)cc2)C1` (some centres unmarked) [Compound 2-15], the 50% growth inhibitory concentration (GI50) is 5.2 nM in the assay on MOLM-13 cells (setting [5]) and 2 nM in the assay with NCI-H1048 cells (setting [6]).

The values above are taken from patent US20260306640A1, “TECHNOLOGIES TARGETING CELL STATES” (Auron Therapeutics, Inc., priority 2023, published 2026).
